US20100168146A1, “Composition Comprising (R)-Spiro[L-Azabicyclo[2.2.2]Octane-3,2'(3'H)-Furo[2,3-B]Pyridine (AZD0328) and its Use in the Treatment of Alzheimer's Disease, ADHD or Cognitive Dysfunction” (priority 2008, published 2010)
Where “and” joins values, the source holds several entries; their conditions need not be identical. Identical values can stand only once. Entries after “also recorded” stand apart in the source; their conditions may differ. Like-named read-outs stand apart in the source and are kept apart here.

Columns and labels:
[1] = tested on: isolated perfused female rabbit hearts; assay: Isolated perfused rabbit heart (Hondeghem model)
Description: Proarrhythmic properties of AZD0328 were investigated in 6 isolated perfused female rabbit hearts according to the Hondeghem model (Table 3). Effects of AZD0328 on action potential duration at 60% of repolarisation (APD60), and Triangulation, Reverse-use dependence and Instability (T, R, I) of the action potential, were studied. Also, a “flag” was raised when T, R or I reached a critical threshold level, below which is considered safe, and the total number of flags was presented as increase in percentage flags. The % flags parameter is considered to be the most sensitive measure of proarrhythmia in this in vitro model, with a threshold for cause of concern at 2.5%. The % flags increased concentration-dependently above threshold at 9 and 30 μM. Although TRIad elements were present, there were no overt signs of proarrhythmia such as early-afterdepolarisations (EADs), Torsade de Pointes, or ventricular fibrillation. In this study the no adverse effect level (NOAEL) of AZD0328 for proarrhythmic signals was 3 μm.

[2] = tested on: rats; assay: Modified Irwin screen; format: in vivo; details: Wistar rat, oral gavage, up to 4 h postdose
Description: The effects of AZD0328 were assessed in the modified Irwin screen, a behavioural, neurological and overt toxicity scoring protocol battery designed to detect a wide range of side effects (Table 3). The findings in the Irwin screen serve as a gross indication of CNS-mediated effects.

[3] = tested on: rats; assay: Spontaneous locomotor activity; format: in vivo; details: Wistar rat, oral gavage, 90 min session
Description: AZD0328 was investigated for possible effects on spontaneous locomotor activity in rats (n=6/group)(Table 3). Animals were individually placed in locomotor activity boxes for a 90 min test session. Movements within the box were measured by infrared beams, and activity was assessed as ambulatory counts, stereotypic counts, vertical counts, and resting time.

[4] = tested on: rats; assay: Intestinal motility (charcoal meal test, glass bead test); format: in vivo; details: rat, oral
Description: Effects of AZD0328 on small intestinal and colorectal motility were investigated in rats using the charcoal meal test and the glass bead test, respectively (Table 3). In the first part, evaluating intestinal transit, a test meal containing charcoal as a non-absorbable marker was administered to rats. In the second part, effects of oral administration of AZD0328 on colo-rectal transit time was evaluated.

[5] = tested on: ferrets; assay: Emetic potential; format: in vivo; details: ferret
Description: The emetic potential of AZD0328 was investigated in ferrets (n=6-8/dose) following a single oral dose of vehicle or AZD0328 (Table 3). Videotape recordings were used for observation of the animals up to 4 h after dose for quantitation and timing of emetic behaviours, characterised as retches (abdominal contractions), vomits and wet-dog shakes.

[6] = PK/TK single dose studies; format: in vivo; details: rhesus monkey, plasma
Description: Pharmacokinetic studies in rats and monkeys were used to estimate the plasma concentrations associated with doses at which AZD0328 improved cognitive performance in these species. For example, in rhesus monkeys, two studies were conducted to determine the pharmacokinetic profile of AZD0328 after administration of 0.048 and 1.7 mg per kg AZD0328. […] We thus estimated the peak plasma concentrations in monkeys that received AZD0328 at 0.00048-0.016 mg per kg to be 0.6-18 nM. Similar studies and calculations in rats, when extended to mice, led us to estimate plasma concentrations at 0.001-0.1 mg per kg body weight to be 0.29-100 nM in these species.
This section provides a summary of the pharmacokinetic and metabolism properties of AZD0328 derived from in vivo studies. […] The derived PK/TK parameters from these studies are presented in Table 4 for single dose studies (DMR4, 0619LR, 20030191PCR, DM016, DMB10, DMW12, 50190, 0190DD and 03.330/1), and are presented in Table 5 multiple dose PK/TK studies (DMR4, 0612AR, DMB15, 50190, 0190DD and 0295AD).

[7] = biological target: Pgp transporter (Homo sapiens, UniProt P08183); assay: Digoxin transport, cell-based assay; format: in vitro ADME
Description: (§1) The 50% bioavailability of AZD0328 in human was conservatively selected based on the observations from rat, dog and monkey.

[8] = tested on: human hepatocytes; assay: Hepatocyte incubations (metabolites); format: in vitro ADME; details: four separate batches of human hepatocytes
Description: Pyridinyl methylation of AZD0328 was a unique polar metabolite (M2) observed in dog hepatocytes. Other minor hydroxylation/oxidation and glucuronide conjugation products were detected in monkey, dog, rat, and guinea pig hepatocyte incubations and mini-pig hepatic microsome incubations. […] Analysis of plasma and urine samples from either orally or iv dosed rats confirmed N-oxide product of AZD0328 was a main product in the excretion and circulation. The percentage of AZD0328 N-oxide in the plasma from male rats was much higher than from females.

[9] = Predicted human PK / exposure (allometric scaling of rat and monkey data)
Description: as §1
Given the findings in the 1 month repeated dose toxicology studies in the rats, it is reasonable to set human systemic exposure limits following single dose administration equal to the exposure observed at NOAEL for renal tubule vacuolation. The corresponding human equivalent dose, based on the FDA guidance (via allometric scaling of body surface area) is, 0.35 mg/kg. A dose of 0.03 mg/day is proposed as a starting dose.

[10] = tested on: rats; assay: 1 month repeated-dose oral toxicity; format: in vivo; details: rat, one month, high dose 65 mg/kg/day (300 μmol/kg/day)
Description: The objective of this investigation was to study the toxicity of AZD0328 given orally to rats for 1 month. Four groups of rats, each consisting of 10 males and 10 females, were given 0, 2.2, 15 and 65 mg/kg/day ([…]) of AZD0328.

[11] = tested on: Ames test; assay: Ames test; format: cell-based
Description: (§2) The genotoxic potential of AZD0328 has been evaluated in the Ames test and in the Mouse lymphoma test. AZD0328 was not mutagenic in either of these tests.

[12] = tested on: Mouse lymphoma test; assay: Mouse lymphoma test; format: cell-based
Description: as §2

[13] = tested on: rhesus monkeys; assay: Intravenous self-administration (reinforcing potential)
Description: The compound was compared with cocaine and saline for its ability to maintain intravenous self-administration in the monkeys under a lever-press induced drug infusion schedule.

Sequence of Pgp transporter (P08183 whole entry): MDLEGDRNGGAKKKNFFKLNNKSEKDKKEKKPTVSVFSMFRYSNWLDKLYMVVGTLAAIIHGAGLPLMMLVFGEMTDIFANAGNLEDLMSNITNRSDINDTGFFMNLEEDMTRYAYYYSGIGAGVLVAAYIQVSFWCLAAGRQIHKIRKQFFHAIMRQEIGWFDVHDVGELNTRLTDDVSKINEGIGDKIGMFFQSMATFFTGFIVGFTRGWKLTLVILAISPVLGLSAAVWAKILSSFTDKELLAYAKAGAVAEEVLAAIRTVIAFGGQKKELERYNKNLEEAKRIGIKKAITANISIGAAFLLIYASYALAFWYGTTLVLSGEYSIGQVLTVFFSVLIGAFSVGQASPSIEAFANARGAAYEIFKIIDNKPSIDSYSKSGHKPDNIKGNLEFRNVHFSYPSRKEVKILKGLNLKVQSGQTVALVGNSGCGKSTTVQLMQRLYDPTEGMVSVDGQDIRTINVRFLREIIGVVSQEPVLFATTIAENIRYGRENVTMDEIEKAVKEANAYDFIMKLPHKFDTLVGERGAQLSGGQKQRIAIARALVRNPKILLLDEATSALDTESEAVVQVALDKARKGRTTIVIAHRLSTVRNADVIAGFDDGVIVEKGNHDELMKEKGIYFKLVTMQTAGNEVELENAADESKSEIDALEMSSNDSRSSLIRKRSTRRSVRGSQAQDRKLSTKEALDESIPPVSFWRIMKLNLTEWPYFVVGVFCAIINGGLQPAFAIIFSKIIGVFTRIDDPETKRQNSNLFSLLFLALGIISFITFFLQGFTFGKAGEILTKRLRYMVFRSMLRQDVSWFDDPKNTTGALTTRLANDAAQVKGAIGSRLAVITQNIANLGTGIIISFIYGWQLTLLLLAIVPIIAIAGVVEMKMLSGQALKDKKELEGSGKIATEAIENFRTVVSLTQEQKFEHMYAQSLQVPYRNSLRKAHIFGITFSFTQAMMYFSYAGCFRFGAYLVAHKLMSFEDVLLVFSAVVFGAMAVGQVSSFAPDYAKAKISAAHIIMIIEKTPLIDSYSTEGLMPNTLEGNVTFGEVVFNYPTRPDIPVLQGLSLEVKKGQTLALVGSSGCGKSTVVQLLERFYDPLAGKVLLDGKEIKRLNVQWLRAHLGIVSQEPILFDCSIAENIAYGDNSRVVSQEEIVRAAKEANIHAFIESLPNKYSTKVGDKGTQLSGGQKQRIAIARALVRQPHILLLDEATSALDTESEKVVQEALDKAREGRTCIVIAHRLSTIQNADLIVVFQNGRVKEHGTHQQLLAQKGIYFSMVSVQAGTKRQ

For `c1cnc2c(c1)C[C@@]1(CN3CCC1CC3)O2` [AZD0328, (R)-Spiro[1-azabicyclo[2.2.2]octane-3,2′(3′H)-furo[2,3-b]pyridine]], the “NOAEL in the proarrhythmic isolated heart assay” value [1] was 0.9 µM, the “NOAEL for proarrhythmic signals” value ([1]; isolated perfused rabbit heart) was 3 μm and the Dose with sedation [2] was 129.8 mg/kg up to 4 h postdose. The “Dose without effect on locomotor activity” value [3] was “up to 129.8 mg/kg”, the “Dose with inhibition of small- and large-intestinal motility” value [4] was no less than 130 µmol/kg and the Emetic responses ([5]; oral gavage 5.6, 16.9 or 56.2 mg/kg) was “retching, vomiting and wet-dog shakes at all doses”. The “Dose with statistically significant retches vs vehicle” value ([5]; single oral dose) was 5.6 mg/kg, the AUC ([6]; male, im, 0.048 mg/kg, read-out: AUC (converted)) was 14.9 ng·h/mL and 0.0684 µM·h and the AUC ([6]; intramuscular, 0.016 mg/kg, rhesus monkeys, read-out: AUC at NOAEL for behavioral side effects) was 0.028 µM·h. For the same compound, the “Pgp mediated digoxin transport” value [7] was “did not significantly inhibit”, the “Metabolites in hepatocyte incubations” value [8] was “no metabolites were detected” and the “Predicted free human therapeutic plasma level” value [9] was 0.5 to 1.7 nM. For the same compound, the “Human equivalent dose of the rat NOAEL (allometric scaling of body surface area)” value ([9]; NOAEL for renal tubule vacuolation) was 0.35 mg/kg, the “Bioavailability in human, conservatively selected” value ([9]; human) was 50% and the “Target organ pathology (kidney)” value [10] was “vacuolation of the tubular cells”. For the same compound, the Mutagenicity / genotoxicity [11] was “not genotoxic; also recorded: not mutagenic”, the Mutagenicity / genotoxicity [12] was “not genotoxic; also recorded: not mutagenic” and the “iv bolus dose after which one monkey died within minutes” value ([13]; initial dose-finding study) was “receiving 34.8 mg/kg as iv bolus”. The Reinforcing effect ([13]; rhesus monkey, iv infusion 0.384, 1.15 and 3.84 mg/kg/infusion) was “did not display reinforcing properties; also recorded: No reinforcing effect seen at any” and the Self-administration level ([13]; rhesus monkey, not greater than saline) was 0.2-1.7 infusions per session.
